Measured values reported in patent publication US6548540B2, “Method of treating cancer using dithiocarbamate derivatives” (Charlotte-Mecklenburg Hospital Authority, priority 1998, dated 2003).

Experiments:
Assay type in all cases: cell-based, human
bcl-2 = test: Immunoblot for bcl-2; conditions: cell lines studied; data not shown
Procedure: Cells were lysed and proteins were isolated and quantitated by immunoassay as previously detailed using 2 μg/ml of primary rabbit polyclonal antibodies against human bcl-2, p53, p21^WAF1/CiP1, cyclin A and cyclin B1, and peroxidase-labeled donkey polyclonal anti-rabbit IgG. Cells were placed on ice, washed twice with cold DPBS, scraped into 0.5 ml boiling buffer (10% [vol/vol] glycerol and 2% [wt/vol] sodium dodecyl sulfate [SDS] in 83 mM Tris, pH 6.8) and sheared by four passages through a pipette. Aliquots were removed for protein determination, using the BCA protein assay (Pierce). After 10% β-mercaptoethanol and 0.05% bromophenol blue were added, lysates were boiled for 5 min and stored at −80° C. until immunoblotting was performed. Proteins in defrosted samples were separated by SDS-polyacrylamide gel electrophoresis on 12% polyacrylamide gels (15 μg protein/lane) and electrotransferred to 0.45 μm Hybond ECL nitrocellulose membranes (Amersham Life Sciences) using the wet transblot method in transfer buffer (0.025 M Tris, 0.192 M glycine, 2.6 mM SDS, and 20%[vol/vol] methanol; pH 8.8) at 100 volts for 1 hour. […] Immunoblots were rinsed again as above and detected via an enhanced chemiluminescence method (ECL Western blotting detection system, Amersham Life Science, Buckinghamshire, England). […]

cyclin A = test: Immunoblot for cyclin A in M1619 cells; conditions: 24 hours
Procedure: Cells were lysed and proteins were isolated and quantitated by immunoassay as previously detailed using 2 μg/ml of primary rabbit polyclonal antibodies against human bcl-2, p53, p21^WAF1/CiP1, cyclin A and cyclin B1, and peroxidase-labeled donkey polyclonal anti-rabbit IgG. Cells were placed on ice, washed twice with cold DPBS, scraped into 0.5 ml boiling buffer (10% [vol/vol] glycerol and 2% [wt/vol] sodium dodecyl sulfate [SDS] in 83 mM Tris, pH 6.8) and sheared by four passages through a pipette. Aliquots were removed for protein determination, using the BCA protein assay (Pierce). After 10% β-mercaptoethanol and 0.05% bromophenol blue were added, lysates were boiled for 5 min and stored at -80° C. until immunoblotting was performed. Proteins in defrosted samples were separated by SDS-polyacrylamide gel electrophoresis on 12% polyacrylamide gels (15 μg protein/lane) and electrotransferred to 0.45 μm Hybond ECL nitrocellulose membranes (Amersham Life Sciences) using the wet transblot method in transfer buffer (0.025 M Tris, 0.192 M glycine, 2.6 mM SDS, and 20%[vol/vol] methanol; pH 8.8) at 100 volts for 1 hour. Blots were blocked overnight at 4° C. with blocking buffer (PBS with 0.1% Tween 20) containing 5% fat-free milk powder (Carnation, Glendale, Calif.). After rinsing 5 times for 5 minutes each in PBS containing 0.1% Tween 20, blots were incubated for 1 hour at room temperature with 2.0 μg/ml of primary antibody. After rinsing again as above, blots were incubated for 1 hr at room temperature with horseradish peroxidase (HRP)-conjugated secondary antibody diluted 1:5,000 in blocking buffer. Immunoblots were rinsed again as above and detected via an enhanced chemiluminescence method (ECL Western blotting detection system, Amersham Life Science, Buckinghamshire, England). Autoradiographic film (X-OMAT AR, Eastman Kodak, Rochester, N.Y.) was exposed to immunoblots for 10, 30, or 60 seconds to obtain satisfactory images. Since disulfiram and copper disrupt transcription factor DNA binding to CRE, their effect on expression of cyclin A was studied. […]

M1619 melanoma cells = test: Intracellular copper by plasma emission spectroscopy; conditions: 6 hours, ng copper/ml of hydrolysate
Procedure: Finally, a number of dithiocarbamate effects on cells have been attributed to increasing the intracellular levels of copper ions. To further probe the role of copper in mediating cytotoxicity from disulfiram, cells were cultured with or without addition of the impermeate Cu^2+ chelator bathocuprioinedisulfonic acid (BCPS, 100 μM) added to medium to sequester Cu^2+ in the extracellular compartment. Cells were also treated 12 hours with various concentration of disulfiram (0.625 to 5.0 μM) and intracellular copper levels were measured as outlined below.
Cells were cultured in 12-well plastic tissue culture plates at an initial plating density of 50,000 cells/well, grown to confluence and treated with disulfiram or vehicle DMSO as outlined above. Media was removed and cells were washed twice with DPBS. Cells were then scraped into 1.0 ml of 3N HCl/10.0% trichloroacetic acid and hydrolyzed at 70° C. for 16 hours. The hydrolysate was centrifuged at 600 gm for 10 minutes to remove debris and copper was measured in the supernatant using inductively coupled plasma emission spectroscopy (Model P30, Perkin Elmer, Norwalk, Conn.) at wavelengths of […] and 224.700 nm. To minimize metal contamination, plasticware rather than glassware was used in these experiments, and double-distilled, deionized water was used for all aqueous media. Results are reported as ng copper/ml of hydrolysate.
M1619 melanoma cells were cultured at a density of 50,000 cells/well in 24 well plates in the presence of 10% FBS and grown to confluence. Disulfiram or DMSO vehicle (5 μl/ml) was added at the concentrations indicated, and cells were incubated an additional 6 hours. Supernatant was removed from cells and monolayers were washed twice with DPBS. Cells were scraped into 1.0 ml 3 N HCL/10% trichloroacetic acid and hydrolyzed at 70° C. for 16 hours. After centrifugation at 600 g×10 min, copper was measured using inductively coupled plasma emission spectroscopy at wavelengths of 324.754 and 224.700 nm. Replicates of four are reported. To minimize metal contamination, plastic ware rather than glass was used in experiments, and double-distilled, deionized water was used for all aqueous media. ^Ap<0.01 compared to DMSO control; ^Bp<0.001 compared to DMSO control.

[1] = tested on: H82 small cell lung cancer cells; test: Trypan blue cytotoxicity, H82; conditions: 0.625 μM disulfiram; 36 hours
Procedure: To assess for cytotoxicity, cells were plated at a density of 50,000 per well on 24 well plates and grown for 24 hours. Disulfiram was then added. After an additional 36 hours, medium was removed and replaced with DPBS containing 0.1% trypan blue. Cell death was assessed by counting the average number of trypan blue positive cells per 10×field in 5 random fields for 4 separate wells.

CCN(CC)C(=S)SSC(=S)N(CC)CC [Disulfiram, tetraethylthiuram disulfide]
expression of bcl-2 (bcl-2): no consistent effect | cyclin A expression (cyclin A; disulfiram 5 μM alone): little effect | reduction of cyclin A expression (cyclin A; disulfiram 5 μM plus CuSO4 1.6 μM): over two-thirds | Intracellular Copper (M1619 melanoma cells; FBS + 0.625 μM DS): 76 ± 11 ng/mL | Intracellular Copper (M1619 melanoma cells; FBS + 1.25 μM DS): 102 ± 5^A ng/ml | Intracellular Copper (M1619 melanoma cells; FBS + 2.5 μM DS): 160 ± 17^A ng/ml | Intracellular Copper (M1619 melanoma cells; FBS + 5.0 μM DS): 195 ± 3^B ng/ml | trypan blue positive cells [1]: 93±12 trypan blue positive cells per well
